Experiments:
Format in all cases: physicochemical
[1] = Water content by Karl Fisher analysis on storage (Example 3)
Description: Water content (% w/w) by Karl Fisher analysis
(§1) Each test material was stored between 2-8*C prior to placing on stability. Each material was sub-divided into 900 mg aliquots, transferred to brown opaque HDPE plastic bottles and flushed with Argon prior to sealing. Sufficient samples were provided for each time point as well as spares for each storage condition. The samples were placed in appropriate incubators previously commissioned at storage conditions 25° C./60% RH, 40° C./75% RH and 60° C.
Water Content by Karl Fisher Analysis
Water content was determined in duplicate on an aliquot of equilibrated material (approximately 100 mg) using a Tritrino 720 KFS Titrator.

[2] = Stability indicating HPLC assay and related substances on storage (Example 3)
Description: Assay (% w/w) and related substances determination
as §1
Testing Procedures Test for Identity Content and Impurities
Testing was performed in duplicate (2×25 mg) in accordance with a stability indicating HPLC assay method. The assay results were reported as M6G as is, M6G as the anhydrous, solvent free material and the anhydrous solvent free material corrected for the salt form using the relevant conversion factor.

[3] = Visual appearance on storage (Example 3)
Description: as §1
The samples were stored for analysis according to the following table: […]

[4] = Colour of solution by visible spectrophotometry on storage (Example 3); details: 5% w/v solution in water
Description: Colour of solution by UV spectrophotometry.
as §1
Colour by Visible Spectrophotometry
A 5% w/v solution of test material was prepared in water and the absorbance measured at 420 nm in a 1 cm silica cell using a Unicam UV4 Visible/UV spectrophotometer.

## CN1CCC23c4c5ccc(O)c4OC2C(OC2OC(C(=O)O)C(O)C(O)C2O)C=CC3C1C5.CN1CCC23c4c5ccc(O)c4OC2C(OC2OC(C(=O)O)C(O)C(O)C2O)C=CC3C1C5.O=C(O)C=CC(=O)O (stereo not shown) [Morphine-6-glucuronide maleate]
[1]; 1 month, 25° C./60% RH
  Moisture: 7.53 % w/w
[1]; 1 month, 40° C./75% RH
  Moisture: 7.60 % w/w
[1]; 1 month, 60° C.
  Moisture: 5.01 % w/w
[1]; 3 months, 25° C./60% RH
  Moisture: 7.14 % w/w
[1]; 3 months, 40° C./75% RH
  Moisture: 9.24 % w/w
[1]; Initial
  Moisture: 6.14 % w/w
[2]; 1 month, 25° C./60% RH
  Known Related Substances HN33177: 0.76%
  Known Related Substances HN67003: 0.17%
  Known Related Substances HN75083: 0.05%
  M6G Assay, Anhydrous basis: 86.66 % w/w
  M6G Assay, As is basis: 80.27 % w/w
  M6G Assay, Corrected for the salt form: 97.56 % w/w
  Total Known: 0.98%
  Total Related Substances: 1.39%
  Total Unknown: 0.41%
[2]; 1 month, 40° C./75% RH
  Known Related Substances HN33177: 0.65%
  Known Related Substances HN67003: 0.94%
  Known Related Substances HN75076: 0.03%
  Known Related Substances HN75083: 0.03%
  Known Related Substances Morphine: 0.12%
  M6G Assay, Anhydrous basis: 83.28 % w/w
  M6G Assay, As is basis: 77.07 % w/w
  M6G Assay, Corrected for the salt form: 93.75 % w/w
  Total Known: 1.77%
  Total Related Substances: 4.80%
  Total Unknown: 3.03%
[2]; 1 month, 60° C.
  Known Related Substances HN33177: 0.50%
  Known Related Substances HN67003: 1.20%
  Known Related Substances HN75076: 0.14%
  Known Related Substances HN75083: 0.02%
  Known Related Substances Morphine: 0.32%
  M6G Assay, Anhydrous basis: 80.36 % w/w
  M6G Assay, As is basis: 76.46 % w/w
  M6G Assay, Corrected for the salt form: 90.47 % w/w
  Total Known: 2.18%
  Total Related Substances: 6.09%
  Total Unknown: 3.91%
[2]; 3 months, 25° C./60% RH
  Known Related Substances HN33177: 0.52%
  Known Related Substances HN67003: 0.58%
  Known Related Substances HN75083: 0.06%
  Known Related Substances Morphine: 0.04%
  M6G Assay, Anhydrous basis: 85.11 % w/w
  M6G Assay, As is basis: 80.04 % w/w
  M6G Assay, Corrected for the salt form: 95.81 % w/w
  Total Known: 1.20%
  Total Related Substances: 3.55%
  Total Unknown: 2.35%
[2]; 3 months, 40° C./75% RH
  Known Related Substances HN33177: 0.50%
  Known Related Substances HN67003: 1.68%
  Known Related Substances HN75076: 0.40%
  Known Related Substances Morphine: 0.43%
  M6G Assay, Anhydrous basis: 78.73 % w/w
  M6G Assay, As is basis: 72.37 % w/w
  M6G Assay, Corrected for the salt form: 88.63 % w/w
  Total Known: 3.01%
  Total Related Substances: 9.94%
  Total Unknown: 6.93%
  drop in assay compared to the initial values: around 10%
[2]; Initial
  Known Related Substances HN33177: 0.76%
  Known Related Substances HN67003: 0.04%
  Known Related Substances HN75083: 0.05%
  M6G Assay, Anhydrous basis: 88.28 % w/w
  M6G Assay, As is basis: 83.61 % w/w
  M6G Assay, Corrected for the salt form: 99.40 % w/w
  Total Known: 0.85%
  Total Related Substances: 0.85%
  Total Unknown: 0.00%
[3]; 1 month, 25° C./60% RH
  Appearance: White crystalline powder
[3]; 1 month, 40° C./75% RH
  Appearance: Pale yellow crystalline powder
[3]; 1 month, 60° C.
  Appearance: Yellow crystalline powder
[3]; 3 months, 25° C./60% RH
  Appearance: Pale yellow crystalline powder
[3]; 3 months, 40° C./75% RH
  Appearance: Yellow crystalline powder
[3]; Initial
  Appearance: White crystalline powder
[4]; 1 month, 25° C./60% RH
  Colour: 0.084 Abs@420 nm
[4]; 1 month, 40° C./75% RH
  Colour: 0.297 Abs@420 nm
[4]; 1 month, 60° C.
  Colour: 0.739 Abs@420 nm
[4]; 3 months, 25° C./60% RH
  Colour: 0.209 Abs@420 nm
[4]; 3 months, 40° C./75% RH
  Colour: 0.879 Abs@420 nm
[4]; Initial
  Colour: 0.017 Abs@420 nm
